Laboratory results: patent US20040191171A1, “Method of detecting skin stimulation effect” (priority 2001, published 2004)

Tests used:
Type in all cases: cell-based
P2X receptor = assay: Intracellular calcium ion concentration in cultured epidermal keratinocytes (Fluo3-AM fluorescence), P2X agonist/inhibitor; settings: FIG. 2; for concentration of intracellular calcium ions in the keratinocytes: agonist solution (final concentration 10 μM) added to epidermal keratinocytes
Experimental: (a) Commercially available epidermal keratinocytes (product of Kurabo Industries Ltd.) were subjected to culture by means of a customary method by use of a KGM medium which had been prepared through the following procedure: MCDB153IK (product of Kyokuto Pharmaceutical Industrial Co., Ltd.) (10.93 g), N-2-hydroxyethylpiperazine-N′-2-ethanesulphonic acid (HEPES) (6.7 g), NaHCO3 (1.2 g), insulin (5 mg), hydrocortisone (0.5 mg), transferrin (10 mg), phosphorylethanolamine (14.1 mg), EGF (10 μg), penicillin (100 mg), and kanamycin (60 mg) were dissolved in purified water (1 L); the pH of the resultant solution was adjusted to 7.4 by use of NaOH; the resultant solution was subjected to filter sterilization; and bovine pituitary gland extract (product of Kyokuto Pharmaceutical Industrial Co., Ltd.) (55 mg) was added to the resultant solution immediately before use of the solution. On the day before measurement of calcium ions was carried out, the thus-cultured epidermal keratinocytes were inoculated into a 96-well plate (2×10^5 cells/well). On the following day, the aforementioned culture solution was removed from the well plate by use of a pipette such that the cells were not exfoliated from the wells. Subsequently, a balanced salt solution (BSS: an aqueous solution prepared by dissolving NaCl (150 mM), KCl (5 mM), CaCl2 (1.8 mM), NaH2PO4 (1.2 mM), MgCl2 (1.2 mM), D-glucose (10 mM), and HEPES (25 mM) in water, and adjusting the pH of the resultant solution to 7.4 by use of NaOH) and Fluo3-AM (product of Dainippon Pharmaceutical Co., Ltd.), which is a calcium-sensitive fluorescent dye, were added to the cultured epidermal keratinocytes (total amount of BSS and Fluo3-AM per well: […]), and incubation was carried out at 37° C. for 60 minutes, to thereby introduce the fluorescent dye into the cultured epidermal keratinocytes. […]
(§1) The fluorescence intensity was measured over time by means of a customary method by use of a fluorescence microplate reader (485 nm, 538 nm).
(§2) The concentration of intracellular calcium ions in the cells was calculated by use of the following formula. […]

VR1 receptor = target: T1, VR1 receptor (Homo sapiens, UniProt Q8NER1); assay: Intracellular calcium ion concentration in cultured epidermal keratinocytes (Fluo3-AM fluorescence), VR1 agonist/antagonist
T1 construct: epidermal keratinocytes were brought into contact with capsaicin, which is an agonist of a VR1 receptor; host or cells: cultured epidermal keratinocytes
T1 sequence (Q8NER1 whole entry): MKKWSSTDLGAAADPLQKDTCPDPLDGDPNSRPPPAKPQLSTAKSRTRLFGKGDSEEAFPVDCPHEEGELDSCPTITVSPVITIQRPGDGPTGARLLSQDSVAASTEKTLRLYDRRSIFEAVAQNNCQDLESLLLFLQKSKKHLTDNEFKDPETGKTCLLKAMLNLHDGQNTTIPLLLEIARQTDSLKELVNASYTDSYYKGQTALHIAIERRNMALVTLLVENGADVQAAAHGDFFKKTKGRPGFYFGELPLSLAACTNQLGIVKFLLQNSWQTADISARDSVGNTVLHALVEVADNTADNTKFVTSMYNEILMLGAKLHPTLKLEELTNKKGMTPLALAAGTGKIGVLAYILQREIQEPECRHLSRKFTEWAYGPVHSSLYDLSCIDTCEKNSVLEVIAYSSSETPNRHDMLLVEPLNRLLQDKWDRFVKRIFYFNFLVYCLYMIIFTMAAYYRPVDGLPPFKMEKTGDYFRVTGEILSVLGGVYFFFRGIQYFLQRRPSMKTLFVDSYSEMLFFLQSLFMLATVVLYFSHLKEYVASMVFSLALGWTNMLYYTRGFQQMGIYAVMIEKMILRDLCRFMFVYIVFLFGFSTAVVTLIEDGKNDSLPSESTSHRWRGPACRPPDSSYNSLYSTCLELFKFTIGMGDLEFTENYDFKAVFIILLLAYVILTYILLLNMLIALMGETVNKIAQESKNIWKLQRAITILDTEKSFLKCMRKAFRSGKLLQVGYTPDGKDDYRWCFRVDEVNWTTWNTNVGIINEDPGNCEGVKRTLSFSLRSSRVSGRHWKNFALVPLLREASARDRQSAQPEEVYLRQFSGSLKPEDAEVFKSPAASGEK
Experimental: (§3) (a) Commercially available epidermal keratinocytes (product of Kurabo Industries Ltd.) were subjected to culture by means of a customary method by use of a KGM medium which had been prepared through the following procedure: MCDB153IK (product of Kyokuto Pharmaceutical Industrial Co., Ltd.) (10.93 g), N-2-hydroxyethylpiperazine-N′-2-ethanesulphonic acid (HEPES) (6.7 g), NaHCO3 (1.2 g), insulin (5 mg), hydrocortisone (0.5 mg), transferrin (10 mg), phosphorylethanolamine (14.1 mg), EGF (10 μg), penicillin (100 mg), and kanamycin (60 mg) were dissolved in purified water (1 L); the pH of the resultant solution was adjusted to 7.4 by use of NaOH; the resultant solution was subjected to filter sterilization; and bovine pituitary gland extract (product of Kyokuto Pharmaceutical Industrial Co., Ltd.) (55 mg) was added to the resultant solution immediately before use of the solution. On the day before measurement of calcium ions was carried out, the thus-cultured epidermal keratinocytes were inoculated into a 96-well plate (2×10^5 cells/well). […]
as §1, §2

epidermal keratinocytes = assay: Intracellular calcium ion concentration in epidermal keratinocytes after adding pain-producing substances; settings: lactic acid present (mM range), two seconds after addition of the solution; FIG. 4
Experimental: as §3, with “solution.” for “solution. On the day before measurement of calcium ions was carried out, the thus-cultured epidermal keratinocytes were inoculated into a 96-well plate (2×10^5 cells/well).”
as §1, §2
Fmin: Fluorescence intensity of Fluo3-AM when EDTA is added and Ca^2+ is blocked (minimum fluorescence intensity)
Fmax: Fluorescence intensity of Fluo3-AM in the presence of excess Ca^2+ (breakage of cell membranes by a surfactant) (maximum fluorescence intensity) […]

2′,3′-o-(2,4,6-trinitrophenyl)adenosine 5′-triphosphate [TNP-ATP]
increase in the concentration of intracellular calcium ions caused by αβ-me ATP (P2X receptor; keratinocytes preliminarily treated with TNP-ATP (100 nM) for 10 minutes, then mixture of TNP-ATP and αβ-me ATP added): suppressed

Nc1ncnc2c1ncn2[C@@H]1O[C@H](COP(=O)(O)OP(=O)(O)OP(=O)(O)O)[C@@H](O)[C@H]1O [ATP, adenosine 5′-triphosphate]
concentration of intracellular calcium ions in the keratinocytes (P2X receptor): significantly increased

COc1cc(CNC(=O)CCCC/C=C/C(C)C)ccc1O [capsaicin]
concentration of intracellular calcium ions in the keratinocytes (VR1 receptor; capsaicin solution (final concentration 100 nM to 10 μM) added to epidermal keratinocytes, FIG. 1A): significantly increased

Oc1cc2c(cc1O)CN(C(=S)NCCc1ccc(Cl)cc1)CCC2 [capsazepine]
increase in the concentration of intracellular calcium ions caused by capsaicin (VR1 receptor; keratinocytes preliminarily treated with capsazepine for 10 minutes, then mixture of capsaicin and capsazepine added, FIG. 1B): suppressed

CC(O)C(=O)O (stereo not drawn) [lactic acid]
concentration of intracellular calcium ions in the epidermal keratinocytes (epidermal keratinocytes): increased

Nc1ncnc2c1ncn2[C@@H]1O[C@H](COP(=O)(O)CP(=O)(O)OP(=O)(O)O)[C@@H](O)[C@H]1O [αβ-me ATP, αβ-methelene ATP]
concentration of intracellular calcium ions in the keratinocytes (P2X receptor): significantly increased
